These are literature values, as cited in patent publication US20100105750A1, “STABLE METRONIDAZOLE GEL FORMULATIONS” (NYCOMED US INC., priority 2008, published 2010).

SMILES strings stand for the structures.

Turning to `OCc1ccccc1` [benzyl alcohol], the water soluble is listed as 4 g/100 mL.
